In patent publication US10835605B2, “Preparations of poly(lactic-co-glycolic acid)/polydopamine core/shell hybrid nanoparticle for photothermal applications” (UNIVERSITY OF SOUTH CAROLINA, priority 2015, dated 2020):

Columns and labels:
[1] = system: UMSCC 22A cells; test: Cellular uptake by confocal microscopy and flow cytometry; assay type: cell-based; details: flow cytometry, 3 h incubation, FIG. 8
Procedure: UMSCC 22A cells (300,000cells/well) were seeded in 6-well plates overnight. After that, DOX, DOX@PLGA/PD-PEG, and DOX@PLGA/PD-C nanoparticles were added at the DOX equivalent concentration of 1 μg/m L. In order to investigate the effect of EGFR on the cellular uptake of DOX@PLGA/PD-C nanoparticle, cells were pretreated with free anti-EGFR antibody (200 μg/mL) 30 min before adding DOX@PLGA/PD-C nanoparticles. The plate was incubated at 37° C. for 3 h. Then cells were washed, trypsinized and resuspended in PBS. DOX-positive cell population was quantified at Ex=488 nm, Em=585 nm using flow cytometry (BD Accuri C6, BD Biosciences).

[2] = system: UMSCC 22A cells; test: In vitro cytotoxicity (MTT cell proliferation assay) with or without NIR irradiation; assay type: cell-based; details: FIG. 9
Procedure: The cytotoxicity of nanoparticles was evaluated by MTT assay. UMSCC 22A cells were seeded in 96-well plate (20,000 cells/well) for 24 h prior to the study. Following, either free DOX or DOX@PLGA/PD-PEG nanoparticles with DOX concentration equal to 2, 5 and 10 μg/mL were added. For comparison, PLGA/PD-PEG (no DOX encapsulation) nanoparticles were also added. The cells were then incubated 3 h in 95/5% air/CO2 at 37° C. followed by irradiation under a 808 nm laser for 10 min. After that, all wells were washed 2 times and replaced with fresh culture medium and kept incubation for another 24 h. Finally, MTT reagent (100 μL, 10%(w/w) in medium) was added and incubated for 4h, following the addition of MTT stop solution and the measurement of the optical density of the medium using a microplate reader (ELX808, Bio-Tech Instrument, Inc.) at λ=595 nm.

[3] = system: UMSCC 22A cells; test: Tumor growth inhibitory assay, subcutaneous head and neck cancer mouse model; assay type: in vivo, female Balb/c nude mice
Procedure: UMSCC 22A cells (3×10^6 cells in 100 μL DMEM medium) were inoculated subcutaneously in female Balb/c nude mice (8-10 week old, ˜20 g, Jackson Laboratory). The tumor volume was measured by a digital caliper and calculated according to the following formula: Tumor volume=tumor length)×(tumor width)^2/2. […] For the control group, PBS was injected. Mice were exposed to an 808 nm laser irradiation (2.83 W/cm^2) 3 h post injection for 10 min. The temperature of the mice during the irradiation was recorded by the FLIR thermal camera. The tumor volumes (V) of the mice were measured every other day for 24 days. The relative tumor volume expressed as V/V0 (V0 was the tumor volume when the treatment was initiated) was used to represent the tumor size change during the whole treatment process. After 24 days, the mice were sacrificed and the blood, tumor, liver, heart, lung, kidneys, and spleen were collected for further analysis. All organs were firstly fixed in 10% neutral buffered formalin for 48 h and then washed with PBS and finally kept in 70% ethanol at 4° C.

[4] = TEM analysis of heart tissue (cardiotoxicity); assay type: in vivo, mice; details: hearts collected after 24 days; DOX@PLGA/PD-C coupled with NIR irradiation
Procedure: To study the cardiotoxicity of DOX, the hearts of the mice were analyzed by TEM. The formalin fixed samples were further fixed with 1% perosmic oxide for 2 h at 4° C., washed with water and then dehydrated in a series of alcohol solutions, embedded, and sliced with the thickness between 50 and 70 nm. TEM analysis was performed on Hitachi H8000 operating at 200 kV.

With `COc1cccc2c1C(=O)c1c(O)c3c(c(O)c1C2=O)C[C@@](O)(C(=O)CO)C[C@@H]3O[C@H]1C[C@H](N)[C@H](O)[C@H](C)O1` [free DOX, Doxorubicin] the “speed of entry into cancer cells” value [1] was “entered cancer cells faster than the DOX@PLGA/PD-C nanoparticles”, the “cell killing effect versus other treatments” value [2] was “higher cell killing effect than other treatments except at 10 μM dose” and the “tumor recurrence / regrowth” value ([3]; 24-day observation) was “gradually bounced back 10 days post treatment”. For the same molecule, the “tumor response after treatment” value ([3]; intratumoral, 40 μL, DOX equivalent 15 μg/mL, DOX@PLGA/PD-C coupled with NIR irradiation) was “only slightly reduced tumor size”, the “H&E staining of tumor tissue” value ([3]; tumors collected after 24 days) was “kept the characteristics of squamous cell carcinoma” and the “heart tissue structure (mitochondria) by TEM” value [4] was “significantly compromised”.
